{"source": "ChEMBL document CHEMBL1140569", "about": "“Synthesis and structure-activity relationships of thieno[2,3-b]pyrroles as antagonists of the GnRH receptor” (Bioorg Med Chem Lett, 2007)", "key": {"[1]": {"experiment": "Plasma clearance in rat", "type": "ADME, organism-based"}, "[2]": {"experiment": "AUC in rat at 10 mg/kg, po", "type": "ADME, organism-based", "parameters": "dose 10 mg/kg, route oral", "conditions": "plasma"}, "[3]": {"experiment": "Oral bioavailability in rat", "type": "ADME, organism-based", "conditions": "in vivo"}, "[4]": {"experiment": "Solubility in 0.1 M phosphate buffer at pH 7.4"}, "[5]": {"experiment": "AUC in rat at 1 mg/kg, po", "type": "ADME, organism-based", "parameters": "dose 1 mg/kg, route oral", "conditions": "plasma"}, "Cytochrome P450 3A4": {"target": "Cytochrome P450 3A4 (Homo sapiens, UniProt P08684)", "sequence (P08684 whole entry)": "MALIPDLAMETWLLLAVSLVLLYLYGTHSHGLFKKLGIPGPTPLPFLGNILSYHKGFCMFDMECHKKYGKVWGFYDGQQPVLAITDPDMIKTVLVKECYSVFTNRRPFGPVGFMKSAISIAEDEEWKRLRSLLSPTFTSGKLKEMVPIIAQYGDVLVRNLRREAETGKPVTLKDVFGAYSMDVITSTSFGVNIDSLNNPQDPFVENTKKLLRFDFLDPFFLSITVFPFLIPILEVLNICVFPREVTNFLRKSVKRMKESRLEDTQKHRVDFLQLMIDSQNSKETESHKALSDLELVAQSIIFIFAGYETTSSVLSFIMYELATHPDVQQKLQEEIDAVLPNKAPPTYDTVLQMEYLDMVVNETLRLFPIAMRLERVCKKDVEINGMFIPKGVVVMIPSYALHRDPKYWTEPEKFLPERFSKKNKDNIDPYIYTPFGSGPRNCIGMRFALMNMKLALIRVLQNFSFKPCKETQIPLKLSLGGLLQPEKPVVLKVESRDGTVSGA", "experiment": "Inhibition of human CYP3A4"}, "Rattus norvegicus": {"system": "Rattus norvegicus", "experiment": "Inhibition of LH production in castrated AP Wistar Han rat model at 75 mg/kg, po after 12 hrs by radioimmunoassay", "type": "functional, organism-based", "parameters": "dose 75 mg/kg"}}, "note": "The source made the active and inactive calls. The calls are words filed in the database; no cut-off is given here.", "data": [{"smiles": "Cc1cc(C)cc(-c2[nH]c3sc(C(C)(C)C(=O)N4C5CCC4CC5)cc3c2CCN2CCC(C(=O)N3CCCC(O)C3)CC2)c1", "note": "(stereo not drawn)", "values": [{"measurement": "clearance", "setting": "[1]", "value": 1.3, "unit": "mL/min/kg"}, {"measurement": "AUC", "setting": "[2]", "value": 39.3, "unit": "µM·h"}]}, {"smiles": "Cc1cc(C)cc(-c2[nH]c3sc(C(C)(C)C(=O)N4C5CCC4CC5)cc3c2CCN2CCN(CC(=O)N3CCOCC3)CC2)c1", "values": [{"measurement": "clearance", "setting": "[1]", "value": 153, "unit": "mL/min/kg"}, {"measurement": "bioavailability", "setting": "[3]", "value": 4, "unit": "%"}]}, {"smiles": "CC(=O)NC1CCN(C(=O)CN2CCN(CCc3c(-c4cc(C)cc(C)c4)[nH]c4sc(C(C)(C)C(=O)N5C6CCC5CC6)cc34)CC2)C1", "note": "(stereo not drawn)", "values": [{"measurement": "solubility", "setting": "[4]", "value": 107, "unit": "µM"}]}, {"smiles": "COC1CCN(C(=O)C2CCN(CCc3c(-c4cc(C)cc(C)c4)[nH]c4sc(C(C)(C)C(=O)N5C6CCC5CC6)cc34)CC2)C1", "note": "(stereo not drawn)", "values": [{"measurement": "clearance", "setting": "[1]", "value": 0.8, "unit": "mL/min/kg"}, {"measurement": "AUC", "setting": "[2]", "value": 190, "unit": "µM·h"}, {"measurement": "bioavailability", "setting": "[3]", "value": 38, "unit": "%"}]}, {"smiles": "Cc1cc(C)cc(-c2[nH]c3sc(C(C)(C)C(=O)N4C5CCC4CC5)cc3c2[C@H](C)CN/C(=N/C(=O)OC(C)C)N2CCC(c3ccncc3)CC2)c1", "values": [{"measurement": "solubility", "setting": "[4]", "value": 1.4, "unit": "µM"}]}, {"smiles": "Cc1cc(C)cc(-c2[nH]c3sc(C(C)(C)C(=O)N4C5CCC4CC5)cc3c2CCN2CCC(CC(=O)N3CCOCC3)CC2)c1", "values": [{"measurement": "AUC", "setting": "[5]", "value": 0.041, "unit": "µM·h"}]}, {"smiles": "Cc1cc(C)cc(-c2[nH]c3sc(C(C)(C)C(=O)N4C5CCC4CC5)cc3c2C(=O)CN2CCN(CC(=O)N3CCCC3)CC2)c1", "values": [{"measurement": "solubility", "setting": "[4]", "value": 947, "unit": "µM"}]}, {"smiles": "CCN(CC)CCOC1CCN(CCc2c(-c3cc(C)cc(C)c3)[nH]c3sc(C(C)(C)C(=O)N4C5CCC4CC5)cc23)CC1", "values": [{"measurement": "AUC", "setting": "[5]", "value": 0.002, "unit": "µM·h"}]}, {"smiles": "Cc1cc(C)cc(-c2[nH]c3sc(C(C)(C)C(=O)N4C5CCC4CC5)cc3c2CCN2CCC(N3CCOCC3)CC2)c1", "values": [{"measurement": "AUC", "setting": "[5]", "value": 0.006, "unit": "µM·h"}]}, {"smiles": "Cc1cc(C)cc(-c2[nH]c3sc(C(C)(C)C(=O)N4C5CCC4CC5)cc3c2[C@H](C)CNC(=NC(=O)OC(C)C)N2CCC(c3ccncc3)C2)c1", "note": "(stereo partly drawn)", "values": [{"measurement": "solubility", "setting": "[4]", "value": 0.8, "unit": "µM"}]}, {"smiles": "Cc1cc(C)cc(-c2[nH]c3sc(C(C)(C)C(=O)N4C5CCC4CC5)cc3c2CCN2CCN(CC(O)CN3CCNCC3)CC2)c1", "note": "(stereo not drawn)", "values": [{"measurement": "solubility", "setting": "[4]", "value": 425, "unit": "µM"}, {"measurement": "IC50", "setting": "Cytochrome P450 3A4", "value": "> 10", "unit": "µM"}]}, {"smiles": "Cc1cc(C)cc(-c2[nH]c3sc(C(C)(C)C(=O)N4C5CCC4CC5)cc3c2C(=O)CN2CCC(C(=O)N3CCOCC3)CC2)c1", "values": [{"measurement": "AUC", "setting": "[5]", "value": 0.36, "unit": "µM·h"}]}, {"smiles": "CC(=O)N1CCN(CC(O)CN2CCN(CCc3c(-c4cc(C)cc(C)c4)[nH]c4sc(C(C)(C)C(=O)N5C6CCC5CC6)cc34)CC2)CC1", "note": "(stereo not drawn)", "values": [{"measurement": "solubility", "setting": "[4]", "value": 236, "unit": "µM"}, {"measurement": "IC50", "setting": "Cytochrome P450 3A4", "value": 6, "unit": "µM"}]}, {"smiles": "Cc1cc(C)cc(-c2[nH]c3sc(C(C)(C)C(=O)N4C5CCC4CC5)cc3c2CCN2CCC(C(=O)N3CCOCC3)C(C)C2)c1", "note": "(stereo not drawn)", "values": [{"measurement": "AUC", "setting": "[2]", "value": 0.254, "unit": "µM·h"}]}, {"smiles": "Cc1cc(C)cc(-c2[nH]c3sc(C(C)(C)C(=O)N4C5CCC4CC5)cc3c2CN2CCN(CC(=O)N3CCCC3)CC2)c1", "values": [{"measurement": "solubility", "setting": "[4]", "value": 2, "unit": "µM"}]}, {"smiles": "COC(=O)/N=C(/NC[C@@H](C)c1c(-c2cc(C)cc(C)c2)[nH]c2sc(C(C)(C)C(=O)N3C4CCC3CC4)cc12)N1CCC(c2ccncc2)C1", "note": "(stereo partly drawn)", "values": [{"measurement": "solubility", "setting": "[4]", "value": 4.6, "unit": "µM"}]}, {"smiles": "Cc1cc(C)cc(-c2[nH]c3sc(C(C)(C)C(=O)N4C5CCC4CC5)cc3c2[C@H](C)CNC(=O)N2CCC(c3ccncc3)CC2)c1", "values": [{"measurement": "solubility", "setting": "[4]", "value": 0.6, "unit": "µM"}]}, {"smiles": "Cc1cc(C)cc(-c2[nH]c3sc(C(C)(C)C(=O)N4C5CCC4CC5)cc3c2CCN2CCC(CNC(=O)N3CCOCC3)CC2)c1", "values": [{"measurement": "AUC", "setting": "[5]", "value": 0.018, "unit": "µM·h"}]}, {"smiles": "COC1CCN(C(=O)C2CCN(CCc3c(-c4cc(C)cc(C)c4)[nH]c4sc(C(C)(C)C(=O)N5C6CCC5CC6)cc34)CC2)CC1", "values": [{"measurement": "clearance", "setting": "[1]", "value": 0.1, "unit": "mL/min/kg"}, {"measurement": "AUC", "setting": "[2]", "value": 358, "unit": "µM·h"}, {"measurement": "bioavailability", "setting": "[3]", "value": 35, "unit": "%"}]}, {"smiles": "Cc1cc(C)cc(-c2[nH]c3sc(C(C)(C)C(=O)N4C5CCC4CC5)cc3c2CCN2CCC(C(=O)N3CCOCC3)CC2)c1", "values": [{"measurement": "clearance", "setting": "[1]", "value": 4, "unit": "mL/min/kg"}, {"measurement": "AUC", "setting": "[2]", "value": 27.1, "unit": "µM·h"}, {"measurement": "Activity", "setting": "Rattus norvegicus", "value": "Active"}]}, {"smiles": "Cc1cc(C)cc(-c2[nH]c3sc(C(C)(C)C(=O)N4C5CCC4CC5)cc3c2CCN2CCN(CC(=O)N(C)C)CC2)c1", "values": [{"measurement": "solubility", "setting": "[4]", "value": 104, "unit": "µM"}]}, {"smiles": "Cc1cc(C)cc(-c2[nH]c3sc(C(C)(C)C(=O)N4C5CCC4CC5)cc3c2CCN2CCC(OCC(=O)N3CCOCC3)CC2)c1", "values": [{"measurement": "AUC", "setting": "[2]", "value": 0.526, "unit": "µM·h"}]}, {"smiles": "Cc1cc(C)cc(-c2[nH]c3sc(C(C)(C)C(=O)N4CCCC4)cc3c2[C@H](C)CNC(=O)N2CCC(c3ccccc3)C2)c1", "note": "(stereo partly drawn)", "values": [{"measurement": "solubility", "setting": "[4]", "value": 56, "unit": "µM"}]}]}
